Test results taken from US20250017927A1, “PHARMACEUTICAL COMPOSITION AND USE THEREOF” (SHANGHAI ALLIST PHARMACEUTICALS CO., LTD., priority 2021, published 2025).

Columns and labels:
[1] = test system: Ba/F3 EGFR G719S; experiment: Proliferation inhibition, CellTiter Glo, Ba/F3 EGFR G719S; format: cell-based, mouse; conditions: for IC50: Mus musculus, Ba/F3 EGFR G719S stably transfected cells, 72 hours
Source text: (§1) The proliferation inhibition activity of the compound (furmonertinib mesilate) on four cells of Ba/F3 EGFR G719S, Ba/F3 EGFR G724S, Ba/F3 EGFR S768I, and Ba/F3 EGFR L861Q stably expressing EGFR rare mutation proteins, one cell of Ba/F3 EGFR G719S/T263P stably expressing EGFR double mutation proteins, and three cells of Ba/F3 ERBB2 A775_G776insYVMA, Ba/F3 ERBB2 V777_G778insGC, and Ba/F3 ERBB2 P780_Y781insGSP stably expressing different ERBB2 exon 20 insertion mutation proteins in mouse pro-B cells Ba/F3 in vitro was determined by the CellTiter Glo method.
(§2) Cell source: Ba/F3 EGFR G719S, Ba/F3 EGFR G724S, Ba/F3 EGFR S768I, Ba/F3 EGFR L861Q, Ba/F3 EGFR G719S/T263P, Ba/F3 ERBB2 A775_G776insYVMA, Ba/F3 ERBB2 V777_G778insGC, Ba/F3 ERBB2 P780_Y781insGSP cells were provided by KYinno Biotechnology (Beijing) Co., Ltd.
(§3) Ba/F3 EGFR G719S, Ba/F3 EGFR G724S, Ba/F3 EGFR S768I, Ba/F3 EGFR L861Q, Ba/F3 EGFR G719S/T263P, Ba/F3 ERBB2 A775_G776insYVMA, Ba/F3 ERBB2 V777_G778insGC, Ba/F3 ERBB2 P780_Y781insGSP cells were cultivated in RPMI1640 complete culture medium containing 10% fetal bovine serum. […]
(§4) The CellTiter-Glo reagent (a luciferase ATP bioluminescence detection reagent, commercially available from Promega) was thawed, the 96-well plates inoculated with the cells were taken out from the CO2 constant temperature incubator, and equilibrated to room temperature (about 30 minutes), 100 μL CellTiter-Glo reagent was added to each well, the cells were lyzed by shaking on an orbital shaker for 5 minutes, […] at room temperature for 20 minutes to wait for the luminescence intensity to stabilize, then the luminescence intensity (Lum) was determined with a microplate reader. The cell survival rate at each concentration of the compound was calculated.
(§5) The data were analyzed using GraphPad Prism 7.0 software, fitted with nonlinear S-curve regression to give a dose-effect curve, and IC50 values were calculated therefrom, as shown in Table 1.

[2] = test system: Ba/F3 ERBB2 A775_G776insYVMA; experiment: Proliferation inhibition, CellTiter Glo, Ba/F3 ERBB2 A775_G776insYVMA; format: cell-based, mouse; conditions: for IC50: Mus musculus, BaF3, Ba/F3 ERBB2 A775_G776insYVMA stably transfected cells, 72 hours
Source text: as §1, §2, §3, §4, §5

[3] = test system: Ba/F3 EGFR L861Q; experiment: Proliferation inhibition, CellTiter Glo, Ba/F3 EGFR L861Q; format: cell-based, mouse; conditions: for IC50: Mus musculus, Ba/F3 EGFR L861Q stably transfected cells, 72 hours
Source text: as §1, §2, §3, §4, §5

[4] = test system: Ba/F3 EGFR G724S; experiment: Proliferation inhibition, CellTiter Glo, Ba/F3 EGFR G724S; format: cell-based, mouse; conditions: for IC50: Mus musculus, Ba/F3 EGFR G724S stably transfected cells, 72 hours
Source text: as §1, §2, §3, §4, §5

[5] = test system: Ba/F3 EGFR G719S/T263P; experiment: Proliferation inhibition, CellTiter Glo, Ba/F3 EGFR G719S/T263P; format: cell-based, mouse; conditions: for IC50: Mus musculus, Ba/F3 EGFR G719S/T263P stably transfected cells, 72 hours
Source text: as §1, §2, §3, §4, §5

[6] = test system: Ba/F3 ERBB2 P780_Y781insGSP; experiment: Proliferation inhibition, CellTiter Glo, Ba/F3 ERBB2 P780_Y781insGSP; format: cell-based, mouse; conditions: for IC50: Mus musculus, BaF3, Ba/F3 ERBB2 P780_Y781insGSP stably transfected cells, 72 hours
Source text: as §1, §2, §3, §4, §5

[7] = test system: Ba/F3 ERBB2 V777_G778insGC; experiment: Proliferation inhibition, CellTiter Glo, Ba/F3 ERBB2 V777_G778insGC; format: cell-based, mouse; conditions: for IC50: Mus musculus, BaF3, Ba/F3 ERBB2 V777_G778insGC stably transfected cells, 72 hours
Source text: as §1, §2, §3, §4, §5

[8] = test system: Ba/F3 EGFR S768I; experiment: Proliferation inhibition, CellTiter Glo, Ba/F3 EGFR S768I; format: cell-based, mouse; conditions: for IC50: Mus musculus, Ba/F3 EGFR S768I stably transfected cells, 72 hours
Source text: as §1, §2, §3, §4, §5

[9] = test system: Ba/F3 ERBB2 V777_G778insGC xenograft; experiment: Anti-tumor effect in Ba/F3 ERBB2 V777_G778insGC (KC-1410) cell xenograft model; format: in vivo; conditions: for anti-tumor activity: B-NDG mice
Source text: This study was used for evaluate the anti-tumor efficacy of three compounds alone in the female (B-NDG) immune deficiency mice bearing tumors of Ba/F3 ERBB2 V777_G778insGC engineered cells.
Experimental animals: B-NDG mice, female, 6-8 weeks, and weighing 18-20 g.
Animal modeling and random grouping: Ba/F3 ERBB2 V777_G778insGC cells were cultivated, cells were collected, and re-suspended and counted in serum-free medium, the re-suspended cells with the addition of a matrigel at 1:1 were subcutaneous inoculated at 1×10^6 cells/0.1 mL in B-NDG mice. When the average tumor volume was about 80-120 mm^3, the animals were randomly grouped into four experiment groups according to the tumor size. Each group contained 12 mice.
The experimental scheme: B-NDG mice were subcutaneously inoculated with Ba/F3 ERBB2 V777_G778insGC cells to establish a cell-line-derived xenograft model.
The curves for the tumor volume change of four experimental groups were shown in FIG. 3, and the curves for the body weight change of four experimental groups were shown in FIG. 4.

[10] = test system: Ba/F3 ERBB2 A775_G776insYVMA subcutaneous xenograft; experiment: Anti-tumor effect in Ba/F3 ERBB2 A775_G776insYVMA CDX tumor model; conditions: 30 mg/kg oral once per day for two weeks
Source text: Experimental animals: BALB/c nude mice, female, 8-9 weeks (mouse week-old when tumor cells were inoculated), and weighing 13.7-17.7 g, purchased from the Shanghai branch of Beijing Vital River Laboratory Animal Technology Co., Ltd.
Animal modeling and random grouping: Ba/F3 ERBB2 A775_G776insYVMA cells were cultivated, amplified to two T175 cm^2 culture flasks, cells were collected, and resuspended and counted in serum-free medium DMEM with the addition of a matrix gel at 1:1, and inoculated at 2×10^6 cells/0.1 mL in Balb/c nude mouse right front scapular subcutaneous. When the average tumor volume was about 160 mm^3, the animals were randomly grouped into three experiment groups according to the tumor size. Each group contained 6 mice. The grouping day was defined as Day 0, i.e., DO.
The experimental scheme: BALB/c nude mice were subcutaneously inoculated with Ba/F3 ERBB2 A775_G776insYVMA cells, and a cell line heterograft tumor model was established. The experiment was divided into 30 mg/kg group of AZD9291, 30 mg/kg group of furmonertinib mesilate and a vehicle control group, wherein each group contained 6 animals, orally administered with the administration volume of 10 uL/g, and the vehicle control group was administered with the same amount of vehicle, the administration was carried out once per day and lasted for two weeks. During the whole experiment, the body weight and the tumor sizes of the mice were measured twice each week, and whether or not the presence of toxic reactions was observed.
Tumor Volume (TV) was calculated by: TV=½×a×b×b, where a and b represented the length and the width of tumor, respectively.

[11] = orally once per day, 20 mg-240 mg; cited from earlier work
[12] = test system: EGFR T790M positive advanced non-small cell lung cancer; conditions: oral 80 mg daily dose, patients with progressive disease after prior systematic anti-tumor therapy; cited from earlier work

Work on C=CC(=O)Nc1cc(Nc2nccc(-c3cn(C)c4ccccc34)n2)c(OC)cc1N(C)CCN(C)C [AZD9291, reference compound] yielded an IC50 [1] of 68 nM, an IC50 [2] of 489 nM and an IC50 [3] of 41 nM. It also gave an IC50 [4] of 139 nM, an IC50 [5] of 191 nM and an IC50 [6] of 96 nM. It also gave an IC50 [7] of 77 nM and an IC50 [8] of 137 nM.

For C=CC(=O)Nc1cc(Nc2nccc(-c3cn(C)c4ccccc34)n2)c(OCC(F)(F)F)nc1N(C)CCN(C)C [furmonertinib mesilate, N-{2-{[2-(dimethylamino)ethyl](methyl)amino}-6-(2,2,2-trifluoroethoxy)-5-{[4-(1-methyl-1H-indol-3-yl)pyrimidin-2-yl]amino}pyridin-3-yl}acrylamide], the anti-tumor activity ([9]; 15 mg/kg oral once per day for two weeks) was “moderate anti-tumor activity”, the anti-tumor activity ([9]; 30 mg/kg oral once per day for two weeks) was “extremely significant anti-tumor activity” and the anti-tumor activity ([9]; 50 mg/kg oral once per day for two weeks) was “extremely significant anti-tumor activity”. For the same molecule, the “effect on the body weight of mice” value ([9]; 15, 30 and 50 mg/kg groups) was “little effect on the body weight”, the safety ([9]; 15, 30 and 50 mg/kg groups) was “good safety” and the proliferation inhibition activity ([1]; Ba/F3 EGFR G719S, result in words) was “good proliferation inhibition activity”. For the same molecule, the IC50 [1] was 19 nM, the “effect on the body weight of nude mice” value [10] was “less effect on the body weight” and the safety [10] was “better safety”. The anti-tumor effect ([10]; BALB/c female nude mice) was “good anti-tumor effect”, the proliferation inhibition activity ([2]; Ba/F3 ERBB2 A775_G776insYVMA, result in words) was “good proliferation inhibition activity” and the IC50 [2] was 118 nM. The proliferation inhibition activity ([3]; Ba/F3 EGFR L861Q, result in words) was “good proliferation inhibition activity”, the IC50 [3] was 13 nM and the proliferation inhibition activity ([4]; Ba/F3 EGFR G724S, result in words) was “good proliferation inhibition activity”. The IC50 [4] was 35 nM, the proliferation inhibition activity ([5]; Ba/F3 EGFR G719S/T263P, result in words) was “good proliferation inhibition activity” and the IC50 [5] was 37 nM. The proliferation inhibition activity ([6]; Ba/F3 ERBB2 P780_Y781insGSP, result in words) was “good proliferation inhibition activity”, the IC50 [6] was 33 nM and the proliferation inhibition activity ([7]; Ba/F3 ERBB2 V777_G778insGC, result in words) was “good proliferation inhibition activity”. For the same molecule, the IC50 [7] was 25 nM, the proliferation inhibition activity ([8]; Ba/F3 EGFR S768I, result in words) was “good proliferation inhibition activity” and the IC50 [8] was 33 nM. For the same molecule, the “adverse events of subjects” value [11] was “mild or moderate”, the dose-limiting toxicity [11] was “does not occur” and the dose-related toxic reaction [11] was “does not occur”. The tolerance and safety [11] was “good” and the anti-tumor effect [12] was “relatively good anti-tumor effect”.
